{"source": "patent US6548540B2", "about": "“Method of treating cancer using dithiocarbamate derivatives” (Charlotte-Mecklenburg Hospital Authority, priority 1998, dated 2003)", "key": {"[1]": {"system": "Adenosquamous lung carcinoma NCI-H596", "assay": "MTT proliferation assay, adenosquamous lung carcinoma", "format": "cell-based", "conditions": "Homo sapiens, read-out: Mean Percent Inhibition of Growth; for inhibition at 0.625 µM: disulfiram 0.625 μM; for inhibition at 1.25 µM: disulfiram 1.25 μM; for inhibition at 2.5 µM: disulfiram 2.5 μM; for inhibition at 5 µM: disulfiram 5.0 μM", "procedure": "(§1) Human malignant cell lines were obtained from American Type Tissue Culture Collection (Rockville, Md.). Melanoma cells lines CRL 1585 and 1619 were cultured in RPMI 1640 (GIBCO-BRL, Life Technologies, Grand Island, N.Y.) with 10% FBS and passed with nonenzymatic Cell Dissociation Solution® (Sigma). The prostate adenocarcinoma cell line CRL 1435 (PC-3) was also cultured in RPMI 1640 with 10% FBS but passed with 0.05% trypsin and 0.53 mM EDTA. The squamous lung carcinoma NCI-H520 and the adenosquamous lung carcinoma NCI-H596 cell lines were grown in RPMI 1640 supplemented with 10% FBS, 10 mM HEPES and 1.0 mM sodium pyruvate and passed with trypsin/EDTA. The small cell lung carcinoma NCI-H82 was cultured as a suspension in RPMI 1640 with 10% FBS. All of the above were grown in a 37° C. humidified environment containing 5% CO2/air. The breast carcinoma cell line MDA-MB-453 was grown in a 37° C. humidified environment with free gas exchange with atmospheric air using Leibovitz's L-15 medium with 2 mM L-glutamine and 10% FBS and was passed with trypsin/EDTA.\nThe effect of disulfiram (0.15 to 5.0 μM), diethyldithiocarbamate (DDC, 1.0 μM) or PDTC (0.625 to 5.0 μM) on proliferation of malignant cell lines was studied in cultures stimulated with 10% FBS. Cell numbers were quantitated 24-72 hours later. In some experiments disulfiram or PDTC were added immediately after cells were plated. In other experiments, cells were plated and allowed to grow for 24-72 hours before fresh media with disulfiram or PDTC was added, and cell numbers were assayed 24-72 hours later. Synergy was studied between disulfiram and N,N′-bis(2-chloroethyl-N-nitrosourea (carmustine or BCNU, 1.0 to 1,000 μM) or cisplatin (0.1 to 100 μg/ml) added to medium. The effect of metals on disulfiram was studied with 0.2 to 10 μM copper (provided as CuSO4), zinc (as ZnCl2), silver (as silver lactate) or gold (as HAuCl4.3H2O) ions added to growth medium. No pH changes occurred with addition of metal salts to culture medium. To provide a biologically relevant source of copper, in some experiments medium was supplemented with human ceruloplasmin at doses replicating low and high normal adult serum concentrations (250 and 500 μg/ml).\nProliferation of cultured cells was quantitated using a previously reported calorimetric method based upon metabolic reduction of the soluble yellow tetrazolium dye 3-[4,5-dimethylthiazol]-2yl-2,5-diphenyl tetrazolium bromide (MTT) to its insoluble purple formazan by the action of mitochondrial succinyl dehydrogenase (See, e.g., S. J. Hirst, et al., “Quantifying proliferation of cultured human and rabbit airway smooth muscle in response to serum and platelet derived growth factor,” Am. J. Respir. Cell Mol. Biol. 7:574-581 (1992); R. Dashtaki, et al. R., supra; S. S. Brar, et al., “Requirement for reactive oxygen species in serum-induced and platelet-derived growth factor-induced growth of airway smooth muscle,” J. Biol. Chem. 274:20017-20026 (1999)). This assay empirically distinguishes between dead and living cells. For proliferation studies, cells were seeded into 24-well uncoated plastic plates (Costar) at 50,000 cells per well and cultured with respective media and mitogens. After 24-96 hours, medium was removed, cells were washed twice with 1 ml of sterile Dulbecco's modified phosphate buffered saline without Ca^2+ or Mg^2+ (DPBS), the medium was replaced with 1 ml/well fresh medium containing 100 μg/ml MTT, and plates were incubated an additional hour. MTT-containing medium was removed, 0.5 ml dimethylsulfoxide (DMSO) was added to each well, and the absorbance of the solubilized purple formazan dye was measured at 540 nm. A total of 4-6 wells were studied at each treatment condition. Preliminary studies were performed with 50-200 μg/ml MTT incubated for 15 minutes to 3 hours to determine the optimum concentration and incubation time at which the rate of conversion was linear and proportional to the number of cells present. […]"}, "[2]": {"system": "cyclin A", "assay": "Immunoblot for cyclin A in M1619 cells", "format": "cell-based, human", "conditions": "24 hours", "procedure": "Cells were lysed and proteins were isolated and quantitated by immunoassay as previously detailed using 2 μg/ml of primary rabbit polyclonal antibodies against human bcl-2, p53, p21^WAF1/CiP1, cyclin A and cyclin B1, and peroxidase-labeled donkey polyclonal anti-rabbit IgG. Cells were placed on ice, washed twice with cold DPBS, scraped into 0.5 ml boiling buffer (10% [vol/vol] glycerol and 2% [wt/vol] sodium dodecyl sulfate [SDS] in 83 mM Tris, pH 6.8) and sheared by four passages through a pipette. Aliquots were removed for protein determination, using the BCA protein assay (Pierce). After 10% β-mercaptoethanol and 0.05% bromophenol blue were added, lysates were boiled for 5 min and stored at -80° C. until immunoblotting was performed. Proteins in defrosted samples were separated by SDS-polyacrylamide gel electrophoresis on 12% polyacrylamide gels (15 μg protein/lane) and electrotransferred to 0.45 μm Hybond ECL nitrocellulose membranes (Amersham Life Sciences) using the wet transblot method in transfer buffer (0.025 M Tris, 0.192 M glycine, 2.6 mM SDS, and 20%[vol/vol] methanol; pH 8.8) at 100 volts for 1 hour. Blots were blocked overnight at 4° C. with blocking buffer (PBS with 0.1% Tween 20) containing 5% fat-free milk powder (Carnation, Glendale, Calif.). After rinsing 5 times for 5 minutes each in PBS containing 0.1% Tween 20, blots were incubated for 1 hour at room temperature with 2.0 μg/ml of primary antibody. After rinsing again as above, blots were incubated for 1 hr at room temperature with horseradish peroxidase (HRP)-conjugated secondary antibody diluted 1:5,000 in blocking buffer. Immunoblots were rinsed again as above and detected via an enhanced chemiluminescence method (ECL Western blotting detection system, Amersham Life Science, Buckinghamshire, England). Autoradiographic film (X-OMAT AR, Eastman Kodak, Rochester, N.Y.) was exposed to immunoblots for 10, 30, or 60 seconds to obtain satisfactory images. Since disulfiram and copper disrupt transcription factor DNA binding to CRE, their effect on expression of cyclin A was studied. […]"}, "[3]": {"system": "Prostate carcinoma CRL 1435 (PC-3)", "assay": "MTT proliferation assay, prostate carcinoma PC-3", "format": "cell-based", "conditions": "Homo sapiens, treatment initially, after 48 hours, 10% FBS, read-out: Mean Percent Inhibition of Growth", "procedure": "as §1\nThe effect of disulfiram (0.15 to 5.0 μM), diethyldithiocarbamate (DDC, 1.0 μM) or PDTC (0.625 to 5.0 μM) on proliferation of malignant cell lines was studied in cultures stimulated with 10% FBS. Cell numbers were quantitated 24-72 hours later. In some experiments disulfiram or PDTC were added immediately after cells were plated. In other experiments, cells were plated and allowed to grow for 24-72 hours before fresh media with disulfiram or PDTC was added, and cell numbers were assayed 24-72 hours later. […]\nProliferation of cultured cells was quantitated using a previously reported calorimetric method based upon metabolic reduction of the soluble yellow tetrazolium dye 3-[4,5-dimethylthiazol]-2yl-2,5-diphenyl tetrazolium bromide (MTT) to its insoluble purple formazan by the action of mitochondrial succinyl dehydrogenase (See, e.g., S. J. Hirst, et al., “Quantifying proliferation of cultured human and rabbit airway smooth muscle in response to serum and platelet derived growth factor,” Am. J. Respir. Cell Mol. Biol. 7:574-581 (1992); R. Dashtaki, et al. R., supra; S. S. Brar, et al., “Requirement for reactive oxygen species in serum-induced and platelet-derived growth factor-induced growth of airway smooth muscle,” J. Biol. Chem. 274:20017-20026 (1999)). […] MTT-containing medium was removed, 0.5 ml dimethylsulfoxide (DMSO) was added to each well, and the absorbance of the solubilized purple formazan dye was measured at 540 nm. […]"}, "[4]": {"conditions": "treatment after 24 hours of growth, additional 24 hours"}, "[5]": {"conditions": "treatment initially, after 48 hours, 10% FBS"}}, "note": "Like-named read-outs stand apart in the source and are kept apart here.", "data": [{"smiles": "CCN(CC)C(=S)SSC(=S)N(CC)CC", "note": "[Disulfiram, tetraethylthiuram disulfide]", "values": [{"measurement": "inhibition at 0.625 µM", "setting": "[1]; [4]", "value": "30 ± 3", "unit": "%"}, {"measurement": "inhibition at 0.625 µM", "setting": "[1]; [5]", "value": "47 ± 4", "unit": "%"}, {"measurement": "inhibition at 1.25 µM", "setting": "[1]; [4]", "value": "30 ± 3", "unit": "%"}, {"measurement": "inhibition at 1.25 µM", "setting": "[1]; [5]", "value": "57 ± 4", "unit": "%"}, {"measurement": "inhibition at 2.5 µM", "setting": "[1]; [4]", "value": "29 ± 1", "unit": "%"}, {"measurement": "inhibition at 2.5 µM", "setting": "[1]; [5]", "value": "50 ± 3", "unit": "%"}, {"measurement": "inhibition at 5 µM", "setting": "[1]; [4]", "value": "34 ± 3", "unit": "%"}, {"measurement": "inhibition at 5 µM", "setting": "[1]; [5]", "value": "50 ± 4", "unit": "%"}, {"measurement": "cyclin A expression", "setting": "[2]; disulfiram 5 μM alone", "value": "little effect"}, {"measurement": "reduction of cyclin A expression", "setting": "[2]; disulfiram 5 μM plus CuSO4 1.6 μM", "value": "over two-thirds"}, {"measurement": "inhibition at 0.625 µM", "setting": "[3]; disulfiram 0.625 μM", "value": "6 ± 6", "unit": "%"}, {"measurement": "inhibition at 1.25 µM", "setting": "[3]; disulfiram 1.25 μM", "value": "29 ± 5", "unit": "%"}, {"measurement": "inhibition at 2.5 µM", "setting": "[3]; disulfiram 2.5 μM", "value": "48 ± 2", "unit": "%"}, {"measurement": "inhibition at 5 µM", "setting": "[3]; disulfiram 5.0 μM", "value": "86 ± 2", "unit": "%"}]}]}
